Experimental data from patent US20210283204A1, “Lin28a ACTIVATOR AND USE THEREFOR” (TES Holdings CO., LTD., priority 2016, published 2021).

System: Lin28a
Assay: Lin28a expression induction in mouse vascular endothelial cell line TKD2 cell (RT-PCR, agarose gel)
Format: cell-based
Conditions: 100 μg/mL, cultured for 5 days, FIG. 1
Description: Mouse vascular endothelial cell line TKD2 cell (National Institute of Biomedical Innovation, Health, and Nutrition, distributed from JCRB Cell Bank, Cell number: IF050374) was sown in advance in a 6-well plate to be 4×10^4 cells/well, and cultured overnight at 33° C. in 5% CO2 environment.
Subsequently, on the day after the date when the mouse vascular endothelial cell line TKD2 cell was sown, the exocrine secretion of Saccharomyces boulardii prepared in (1) was added to the culture medium to reach a final concentration of 100 μg/mL, and cultured for 5 days while performing addition. After the addition, the culture medium was not exchanged at all. […]
After culturing, the cell was isolated and recovered by using 0.25% of Trypsin-EDTA solution (manufactured by ThermoFisher Corporation, 25200056). […] From the total RNA, cDNA was produced by using ImProm-II (registered trademark) reverse Transcription System (Promega A3801), and expression of Lin28a was monitored by PCR using primers shown in the following Table 1. […]

ganglioside
expression of Lin28a: expression of Lin28a was not induced
